# Reference: US12569498B2, “Methods and compositions for the prevention and treatment of ischemia reperfusion injury and infection” (CHILDREN'S NATIONAL MEDICAL CENTER, priority 2019, dated 2026)
# “Also recorded” adds a separate entry of the source.
# Key:
# [1] = system: NFKB targets (TLR4, NLRP3, Trim63, Fbxo32); experiment: RT-PCR of downstream NFKB target genes after testicular torsion; format: in vivo, CD1 mice; settings: testis, 18 hours following testicular torsion
# Procedure: (§1) Mice underwent testicular torsion as previously described (Lysiak 2001). Briefly, mice were anesthetized with isoflurane over a heating pad. The right testis was delivered through a low scrotal incision and rotated counterclockwise 720 degrees to induce ischemia for 2 hours. […] All animals were injected with long-acting buprenorphine (0.1 mg/kg) for long-term pain control prior to being recovered from anesthesia. Mice were euthanized either 18 hours or 30 days following torsion. Mice kept for 30 days after surgery were weighed on a weekly basis.
# (§2) Cytisine (Sigma-Aldrich, St. Louis, MO) was administered intraperitoneally at a dose of 0.1 μg/gram either 1 hour before torsion or 1 hour after torsion (1 hour prior to detorsion). Varenicline ([…]) was administered as an intraperitoneal injection one hour after the onset of torsion and then continued every 12 hours for a total of 4 doses.
# RNA was isolated from testis tissue using RNEasy mini kit (Qiagen, Hilden, Germany) using the manufacturer's protocol. RNA concentration was measured with Nanodrop 8000 (Thermo Scientific, Waltham, MA). cDNA was synthesized using Superscript First-Strand Synthesis system for RT-PCR (Invitrogen, Carlsbad, CA) on a GeneAmp PCR System 9700 (Applied Biosystems, Foster City, CA) Real-Real-time PCR was performed using QuantStudio 7 Flex (Applied Biosystems, Foster City, CA). Software Quantstudio Real-Time PCR Software (Thermo Fisher Scientific, Waltham, MA). TaqMan Gene Expression Assays (Applied Biosystems, Foster City, CA). Standard TaqMan primers were used for Col1, Col3, Vim, SMA.
# NFKB signaling results in the upregulation of several downstream targets, which propagate the inflammatory cascade. To determine if varenicline administration reduced activation of the NFKB axis, quantitative PCR of established downstream NFKB targets was performed.
# [2] = mice (Obach 2006); cited from earlier work
# [3] = Masson trichrome staining and ImageJ quantification of collagen in testis 30 days after torsion; format: in vivo, CD1 mice; settings: 30 days following torsion, vs untreated, cytisine p<0.01, varenicline p<0.0001
# Procedure: as §1, §2
# Testis tissue was harvested and stored in 70% ethanol. Fixation, embedding, sectioning, and staining were performed by the research pathology core at George Washington University. Sections were cut at a thickness of […]. Tissues were stained for H&E or Masson trichrome. Photographs were scanned at 20× resolution with Olympus VS120 virtual slide microscope system. TIF images were analyzed with ImageJ Fiji software as previously described (Caetano, Fronza et al. 2016). The color deconvolution plugin was used to perform ImageJ analysis on an area measuring 3000 square pixels. Automatic thresholding was performed. The amount of collagen in each area is expressed as the percentage of blue pixels in the image area taken as an average of 3 non-overlapping measurements.
# [4] = system: IRI markers and pro-fibrotic genes in kidney after CFT073 uropathogenic Escherichia coli pyelonephritis; experiment: Quantitative PCR of kidney after acute pyelonephritis (IRI markers, pro-fibrotic genes); format: in vivo, C3H/HeOuJ mice
# Procedure: Methods: Using an established murine model, pyelonephritis was induced by inoculating the bladder of C3H/HeOuJ mice with a uropathogenic E. coli. Five days following inoculation, half of the animals were treated with 5 days of ceftriaxone and half were treated with 5 days of ceftriaxone plus varenicline in the initial 48 hours. Histology and the expression of ischemia reperfusion injury markers and pro-fibrotic genes were evaluated at 14 and 30 days following the initial infection.
# To initiate pyelonephritis, the bladder was catheterized with a 24-gauge angiocatheter and a total volume of 100 μL of a phosphate-buffered saline containing […] colony forming units (CFU) of CFT073 uropathogenic Escherichia coli (UPEC) was then instilled.
# […] Real-time PCR was performed using QuantStudio 7 Flex (Applied Biosystems, Foster City, CA) with Software Quantstudio Real-Time PCR Software (Thermo Fisher Scientific, Waltham, MA) and TaqMan Gene Expression Assays (Applied Biosystems, Foster City, CA). Standard TaqMan primers were used for Complement 1 q B chain (C1qb, Mm01179619_m1), Lipocalin 2 (Lcn2, Mm01324470_m1), Serpina (Mm04213318_m1), Cathepsin S (Ctss, Mm01255859_m1), Vascular cell adhesion molecule 1 (Vcam1, Mm01320970_m1), Interleukin 1 beta (IL-1β, Mm00434228_m1), and Nitric oxide synthase 2 (Nos2, Mm00440502_m1) as short-term IRI markers and Collagen 1 (Col1, Mm00801666_g1), Collagen 3 (Col3, Mm01254476_m1), Vimentin (Vim, Mm01333430_m1), and Smooth muscle actin (Acta, Mm00725412_s1) to evaluate long-term fibrosis.
# [5] = system: oxidative stress within the testis; experiment: Myeloperoxidase activity and reduced glutathione levels in testis after testicular torsion; format: in vivo, CD1 mice; settings: varenicline 1 hour after onset of torsion, vs untreated controls; for reduced glutathione (GSH) levels in testis: 48 hours following reperfusion, P≤0.0742
# Procedure: as §1, with “Mice were euthanized either 18 hours or 30 days following torsion.” left out
# as §2
# Tissues were harvested and stored at −80° C. until use. Glutathione reductase activity was measured by use of glutathione reductase assay Kit (Sigma-Aldrich, St. Louis, MO). Testis tissue was homogenized in 5% sulfosalicylic Acid (SSA) solution. Samples were then centrifuged and supernatant was reserved. Supernatants were added to a reaction mixture containing 95 mM potassium phosphate buffer, pH 7.0, 0.95 mM EDTA, 0.038 mg/mL NADPH, 0.031 mg/mL DTNB, 0.115 units/mL glutathione reductase, and 0.24% SSA. Absorbance at 412 nm was recorded. Glutathione results were expressed as nm GSH per mL sample.
# Following an ischemic event, the initial inflammatory response is characterized by an increase in oxidative stress and production of reactive oxygen species. In order to determine the effect of cytisine treatment on the level of reactive oxygen species (ROS) following testicular torsion, testicular levels of myeloperoxidase (MPO), a marker of neutrophil activation, and reduced glutathione (GSH) levels (an indirect measure of oxidative stress within the testis) were measured.
# [6] = cited from earlier work
# [7] = adolescents aged 12-16, of 75 patients (Faessel 2009)
structure (smiles),measurement,setting,value
"c1cnc2cc3c(cc2n1)C1CNCC3C1 [varenicline, 7,8,9, 10-tetrahydro-6, 10-methano-6H-pyrazino[2,3-h][3]benzazepine]",expression of Fbxo32,[1]; p<0.0001,significantly decreased the expression
same,expression of TLR4,[1]; p<0.01,significantly decreased the expression
same,expression of NLRP3,[1]; p<0.05,significantly decreased the expression
same,expression of Trim63,[1]; p≤0.034,significantly decreased the expression
same,half-life,[2],1.4 h
same,"collagen content of testis (trichrome staining, percentage of collagen)",[3],untreated group had significantly higher collagen content; also recorded: decreased histologic and genetic markers of testicular fibrosis
same,"collagen content of testis (trichrome staining, percentage of collagen)",[3]; listed as Varenicline,significantly higher percentage of collagen in the untreated animals
same,expression of established mediators (markers) of renal ischemia reperfusion injury,"[4]; 14 days after inoculation, 5 days after completion of antibiotics, varenicline 1 mg/kg i.p. twice daily first 48 hours plus ceftriaxone vs ceftriaxone alone, difference not statistically significant",decreased expression of IRI markers
same,"expression of pro-fibrotic genes (Col1, Col3, acta, vimentin) in kidney","[4]; 30 days following inoculation, 21 days after completion of antibiotics, varenicline plus ceftriaxone vs ceftriaxone alone",trend towards a decreased expression of pro-fibrotic genes; also recorded: long-term decrease; also recorded: decrease in expression of genes responsible for renal fibrosis
same,expression of vimentin in kidney,"[4]; kidneys at 30 days, p-value of 0.03",Decrease in expression of vimentin
same,reduced glutathione (GSH) levels in testis,[5],increased levels of reduced glutathione (GSH)
same,reduced glutathione (GSH) levels in testis,[5]; listed as Varenicline,preserved reduced glutathione levels
same,myeloperoxidase (MPO) activity in testis,[5]; P≤0.0013,decreased levels of MPO activity; also recorded: significantly decreased
same,incidence of neurocognitive side effects,[6]; adolescents aged 12-16 (Faessel 2009),3 out of 75
same,abnormal dreams,[6]; [7],2 patients
same,transient mild anger,[6]; [7],1 patient
